Usually IC50 stands for the concentration at which inhibition is half-maximal.

Data on 36 compounds can be found in patent US10246426B2, “Triazole compounds as T-type calcium channel blockers” (IDORSIA PHARMACEUTICALS LTD, priority 2014, dated 2019).

Sequence of Cav3.2 (O95180 whole entry, looked up): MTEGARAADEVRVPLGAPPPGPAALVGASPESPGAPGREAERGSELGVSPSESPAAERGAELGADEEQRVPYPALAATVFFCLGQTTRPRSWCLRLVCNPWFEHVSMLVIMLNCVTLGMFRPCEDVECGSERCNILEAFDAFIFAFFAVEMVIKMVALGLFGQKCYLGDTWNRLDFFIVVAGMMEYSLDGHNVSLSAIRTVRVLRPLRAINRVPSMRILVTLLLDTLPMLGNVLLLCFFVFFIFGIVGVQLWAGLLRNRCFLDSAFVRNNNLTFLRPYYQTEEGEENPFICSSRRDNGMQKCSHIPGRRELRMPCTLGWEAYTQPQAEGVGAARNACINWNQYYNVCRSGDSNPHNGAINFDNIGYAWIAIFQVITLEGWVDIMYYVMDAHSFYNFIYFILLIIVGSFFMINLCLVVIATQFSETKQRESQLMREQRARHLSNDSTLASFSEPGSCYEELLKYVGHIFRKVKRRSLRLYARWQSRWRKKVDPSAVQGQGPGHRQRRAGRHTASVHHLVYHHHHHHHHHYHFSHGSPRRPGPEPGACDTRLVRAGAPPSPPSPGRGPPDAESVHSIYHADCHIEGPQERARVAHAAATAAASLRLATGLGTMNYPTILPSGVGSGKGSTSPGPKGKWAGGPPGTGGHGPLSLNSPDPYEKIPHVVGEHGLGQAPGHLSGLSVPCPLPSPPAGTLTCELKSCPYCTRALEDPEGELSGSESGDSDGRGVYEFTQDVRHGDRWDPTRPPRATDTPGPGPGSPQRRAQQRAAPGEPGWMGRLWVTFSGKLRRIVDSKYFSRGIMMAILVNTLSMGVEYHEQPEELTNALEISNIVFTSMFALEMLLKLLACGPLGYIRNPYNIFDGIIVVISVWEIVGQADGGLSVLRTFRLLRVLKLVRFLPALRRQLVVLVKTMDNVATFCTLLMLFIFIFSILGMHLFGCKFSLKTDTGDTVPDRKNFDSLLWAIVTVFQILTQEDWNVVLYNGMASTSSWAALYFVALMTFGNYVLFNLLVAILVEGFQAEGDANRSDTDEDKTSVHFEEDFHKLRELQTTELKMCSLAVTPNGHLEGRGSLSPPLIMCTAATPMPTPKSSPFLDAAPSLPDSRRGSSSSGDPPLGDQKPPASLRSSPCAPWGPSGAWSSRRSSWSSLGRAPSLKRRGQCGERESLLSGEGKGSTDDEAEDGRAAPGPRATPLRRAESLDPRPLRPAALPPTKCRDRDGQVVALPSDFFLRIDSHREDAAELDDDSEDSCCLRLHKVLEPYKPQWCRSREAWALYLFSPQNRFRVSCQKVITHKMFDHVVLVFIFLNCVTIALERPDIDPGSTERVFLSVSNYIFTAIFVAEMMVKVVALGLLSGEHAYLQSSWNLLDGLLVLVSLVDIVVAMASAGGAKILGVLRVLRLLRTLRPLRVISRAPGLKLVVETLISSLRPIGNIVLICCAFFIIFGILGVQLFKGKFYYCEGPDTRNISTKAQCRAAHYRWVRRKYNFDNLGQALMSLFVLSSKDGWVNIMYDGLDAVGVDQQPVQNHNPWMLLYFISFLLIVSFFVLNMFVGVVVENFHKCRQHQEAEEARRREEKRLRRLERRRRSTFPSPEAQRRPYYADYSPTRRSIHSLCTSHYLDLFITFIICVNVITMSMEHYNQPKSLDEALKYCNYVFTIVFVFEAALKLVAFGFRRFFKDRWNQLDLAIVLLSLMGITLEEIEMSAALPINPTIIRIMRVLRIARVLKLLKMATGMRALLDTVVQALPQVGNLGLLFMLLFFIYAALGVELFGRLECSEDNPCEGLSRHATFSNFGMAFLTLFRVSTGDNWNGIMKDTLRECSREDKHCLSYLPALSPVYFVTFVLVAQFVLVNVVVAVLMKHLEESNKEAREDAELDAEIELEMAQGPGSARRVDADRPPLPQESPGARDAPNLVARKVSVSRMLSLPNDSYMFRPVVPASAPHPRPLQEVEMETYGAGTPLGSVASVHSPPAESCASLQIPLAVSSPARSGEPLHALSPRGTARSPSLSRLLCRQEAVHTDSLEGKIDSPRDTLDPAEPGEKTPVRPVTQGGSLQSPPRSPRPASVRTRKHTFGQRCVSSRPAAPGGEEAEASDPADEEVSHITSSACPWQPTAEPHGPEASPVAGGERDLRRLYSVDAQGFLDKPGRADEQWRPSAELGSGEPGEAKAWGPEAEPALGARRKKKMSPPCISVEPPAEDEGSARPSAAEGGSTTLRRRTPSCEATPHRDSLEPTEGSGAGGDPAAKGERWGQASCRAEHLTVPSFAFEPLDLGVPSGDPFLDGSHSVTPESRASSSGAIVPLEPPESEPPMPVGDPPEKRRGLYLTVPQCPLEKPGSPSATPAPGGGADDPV

For the assay, the target named is Cav3.2 (Homo sapiens, UniProt O95180). Kind of assay: Calcium flux FLIPR assay, HEK293 cells recombinantly expressing Cav3.2. The assay is classed as cell-based. To be noted: Cav3.2-channel, Ca2+ entry stimulated by 10 mM CaCl2. Summed up:
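Fluo-4-loaded HEK293 cells stably expressing Cav3.2, seeded overnight at 37 °C; compounds diluted in TEAC buffer (pH 7.2) and preincubated 3 min before Ca2+ entry triggered with CaCl2 at 10 mM final. Area under FLIPR fluorescence trace fitted sigmoidally; IC50 relative to vehicle signal.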
(In general: A change in cytosolic calcium serves as a functional read-out for many receptors and channels.)
Take `COc1ccc(Cn2ncc(NC(=O)Cc3ccc4c(cnn4C)c3)n2)cc1F` [Example 152, N-[2-(3-Fluoro-4-methoxy-benzyl)-2H-[1,2,3]triazol-4-yl]-2-(1-methyl-1H-indazol-5-yl)-acetamide]: the IC50 worked out at 91 nM.

`Cc1nn(C)c2ccc(CC(=O)Nc3cnn(Cc4ccc(C#N)cc4)n3)cc12` [Example 102, N-[2-(4-Cyano-benzyl)-2H-[1,2,3]triazol-4-yl]-2-(1,3-dimethyl-1H-indazol-5-yl)-acetamide]: the IC50 was 160 nM.

In the case of `COc1ccc(Cn2ncc(NC(=O)Cc3ccc4cnn(C)c4c3)n2)cc1F` [Example 121, N-[2-(3-Fluoro-4-methoxy-benzyl)-2H-[1,2,3]triazol-4-yl]-2-(1-methyl-1H-indazol-6-yl)-acetamide], the half-inhibitory concentration (IC50) worked out at 290 nM.

Turning to `Cc1ccc(Cn2ncc(NC(=O)Cc3ccc4c(cnn4C)c3)n2)cc1` [Example 69, N-[2-(4-Methyl-benzyl)-2H-[1,2,3]triazol-4-yl]-2-(1-methyl-1H-indazol-5-yl)-acetamide], the IC50 turned out to be 20 nM.

In the case of `O=C(Cc1ccc(OC2CCC2)cc1)Nc1cnn(Cc2ccc(F)c(F)c2)n1` [Example 9, 2-(4-Cyclobutoxy-phenyl)-N-[2-(3,4-difluoro-benzyl)-2H-[1,2,3]triazol-4-yl]-acetamide], the IC50 was found to be 22 nM. `COc1c(F)cc(Cn2ncc(NC(=O)Cc3ccc(C4(F)COC4)cc3)n2)cc1F` [Example 148, N-[2-(3,5-Difluoro-4-methoxy-benzyl)-2H-[1,2,3]triazol-4-yl]-2-[4-(3-fluoro-oxetan-3-yl)-phenyl]-acetamide]: the IC50 turned out to be 35 nM.

Turning to `Cn1ccc2cc(CC(=O)Nc3cnn(Cc4ccc(C#N)c(F)c4)n3)ccc21` [Example 70, N-[2-(4-Cyano-3-fluoro-benzyl)-2H-[1,2,3]triazol-4-yl]-2-(1-methyl-1H-indol-5-yl)-acetamide], the IC50 came out at 18 nM. Consider `CC(C)n1ncc2cc(CC(=O)Nc3cnn(Cc4ccc(F)c(F)c4)n3)ccc21` [Example 33, N-[2-(3,4-Difluoro-benzyl)-2H-[1,2,3]triazol-4-yl]-2-(1-isopropyl-1H-indazol-5-yl)-acetamide], for which the concentration for half-maximal inhibition (IC50) came to 24 nM. With `CCn1ncc2cc(CC(=O)Nc3cnn(Cc4ccc(C#N)c(C)c4)n3)ccc21` [Example 168, N-[2-(4-Cyano-3-methyl-benzyl)-2H-[1,2,3]triazol-4-yl]-2-(1-ethyl-1H-indazol-5-yl)-acetamide] the figure was 40 nM.

With `Cn1ccc2cc(CC(=O)Nc3cnn(Cc4ccc(C#N)cc4)n3)ccc21` [Example 99, N-[2-(4-Cyano-benzyl)-2H-[1,2,3]triazol-4-yl]-2-(1-methyl-1H-indol-5-yl)-acetamide], the IC50 was 19 nM. With `COc1cc(Cn2ncc(NC(=O)Cc3ccc(C4(OC)COC4)cc3)n2)cc(F)c1F` [Example 228, N-[2-(3,4-Difluoro-5-methoxy-benzyl)-2H-[1,2,3]triazol-4-yl]-2-[4-(3-methoxy-oxetan-3-yl)-phenyl]-acetamide] the figure was 300 nM; with `Cc1cc(Cn2ncc(NC(=O)Cc3ccc(OC4CC(F)(F)C4)cc3)n2)ccc1C#N` [Example 166, N-[2-(4-Cyano-3-methyl-benzyl)-2H-[1,2,3]triazol-4-yl]-2-[4-(3,3-difluoro-cyclobutoxy)-phenyl]-acetamide], 33 nM; with `CC(C)c1ccc(CC(=O)Nc2cnn(Cc3ccc(OC(F)F)c(F)c3)n2)cc1` [Example 180, N-[2-(4-Difluoromethoxy-3-fluoro-benzyl)-2H-[1,2,3]triazol-4-yl]-2-(4-isopropyl-phenyl)-acetamide], 43 nM. With `COc1ccc(Cn2ncc(NC(=O)Cc3ccc(C(C)(C)C)cc3)n2)cc1` [Example 61, 2-(4-tert-Butyl-phenyl)-N-[2-(4-methoxy-benzyl)-2H-[1,2,3]triazol-4-yl]-acetamide] the figure was 44 nM. With `COc1ccc(Cn2ncc(NC(=O)Cc3ccc(N4CCC(F)(F)C4)nc3)n2)cc1C#N` [Example 207, N-[2-(3-Cyano-4-methoxy-benzyl)-2H-[1,2,3]triazol-4-yl]-2-[6-(3,3-difluoro-pyrrolidin-1-yl)-pyridin-3-yl]-acetamide] the figure was 130 nM. As for `CC(C)(C)c1ccc(CC(=O)Nc2cnn(Cc3ccc(F)cc3)n2)cc1` [Example 54, 2-(4-tert-Butyl-phenyl)-N-[2-(4-fluoro-benzyl)-2H-[1,2,3]triazol-4-yl]-acetamide], the IC50 is 26 nM. For `Cn1ccc2cc(CC(=O)Nc3cnn(Cc4ccc(F)c(F)c4)n3)ccc21` [Example 7, N-[2-(3,4-Difluoro-benzyl)-2H-[1,2,3]triazol-4-yl]-2-(1-methyl-1H-indol-5-yl)-acetamide], the concentration for half-maximal inhibition (IC50) stood at 6.4 nM. For the compound `Cn1ncc2cc(CC(=O)Nc3cnn(Cc4ccc(F)cc4)n3)ccc21` [Example 56, N-[2-(4-Fluoro-benzyl)-2H-[1,2,3]triazol-4-yl]-2-(1-methyl-1H-indazol-5-yl)-acetamide], the IC50 was 38 nM. Turning to `COc1ccc(Cn2ncc(NC(=O)Cc3ccc(C(C)C)cc3)n2)cc1OC` [Example 50, N-[2-(3,4-Dimethoxy-benzyl)-2H-[1,2,3]triazol-4-yl]-2-(4-isopropyl-phenyl)-acetamide], the 50% inhibitory concentration (IC50) was determined as 160 nM. The figure for `CC(C)(C)c1ccc(CC(=O)Nc2cnn(Cc3ccc(C#N)cc3)n2)cc1` [Example 96, 2-(4-tert-Butyl-phenyl)-N-[2-(4-cyano-benzyl)-2H-[1,2,3]triazol-4-yl]-acetamide] is 44 nM. The figure for `COc1cc(Cn2ncc(NC(=O)Cc3ccc(OCC4(F)COC4)cc3)n2)cc(F)c1F` [Example 229, N-[2-(3,4-Difluoro-5-methoxy-benzyl)-2H-[1,2,3]triazol-4-yl]-2-[4-(3-fluoro-oxetan-3-ylmethoxy)-phenyl]-acetamide] is 130 nM; for `Cc1cn(C)c2ccc(CC(=O)Nc3cnn(Cc4ccc(C#N)cc4)n3)cc12` [Example 100, N-[2-(4-Cyano-benzyl)-2H-[1,2,3]triazol4-yl]-2-(1,3-dimethyl-1H-indol-5-yl)-acetamide] it is 22 nM. With `CCn1ncc2cc(CC(=O)Nc3cnn(Cc4cc(F)c(OC)c(F)c4)n3)ccc21` [Example 149, N-[2-(3,5-Difluoro-4-methoxy-benzyl)-2H-[1,2,3]triazol-4-yl]-2-(1-ethyl-1H-indazol-5-yl)-acetamide] the figure was 29 nM. Regarding `Cn1nc(C2CC2)c2cc(CC(=O)Nc3cnn(Cc4ccc(F)c(F)c4)n3)ccc21` [Example 35, 2-(3-Cyclopropyl-1-methyl-1H-indazol-5-yl)-N-[2-(3,4-difluoro-benzyl)-2H-[1,2,3]triazol-4-yl]-acetamide], the concentration for half-maximal inhibition (IC50) came out at 29 nM. The figure for `COc1cc(Cn2ncc(NC(=O)Cc3ccc4c(cnn4C)c3)n2)cc(F)c1F` [Example 212, N-[2-(3,4-Difluoro-5-methoxy-benzyl)-2H-[1,2,3]triazol-4-yl]-2-(1-methyl-1H-indazol-5-yl)-acetamide] is 230 nM; for `CCn1ncc2cc(CC(=O)Nc3cnn(Cc4ccc(OC(F)(F)F)c(F)c4)n3)ccc21` [Example 190, 2-(1-Ethyl-1H-indazol-5-yl)-N-[2-(3-fluoro-4-trifluoromethoxy-benzyl)-2H-[1,2,3]triazol-4-yl]-acetamide] it is 14 nM; for `CC1(COc2ccc(CC(=O)Nc3cnn(Cc4ccc(C#N)cc4)n3)cc2)CC(F)(F)C1` [Example 197, N-[2-(4-Cyano-benzyl)-2H-[1,2,3]triazol-4-yl]-2-[4-(3,3-difluoro-1-methyl-cyclobutylmethoxy)-phenyl]-acetamide] it is 52 nM. Regarding `Cc1cc(Cn2ncc(NC(=O)Cc3ccc4c(cnn4C)c3)n2)ccc1C#N` [Example 164, N-[2-(4-Cyano-3-methyl-benzyl)-2H-[1,2,3]triazol-4-yl]-2-(1-methyl-1H-indazol-5-yl)-acetamide], the IC50 was 110 nM. The figure for `Cn1ncc2ccc(CC(=O)Nc3cnn(Cc4ccc(C#N)cc4)n3)cc21` [Example 101, N-[2-(4-Cyano-benzyl)-2H-[1,2,3]triazol-4-yl]-2-(1-methyl-1H-indazol-6-yl)-acetamide] is 480 nM; for `COc1cc(Cn2ncc(NC(=O)Cc3ccc(C(C)(C)C)cc3)n2)cc(F)c1C#N` [Example 158, 2-(4-tert-Butyl-phenyl)-N-[2-(4-cyano-3-fluoro-5-methoxy-benzyl)-2H-[1,2,3]triazol-4-yl]-acetamide] it is 240 nM. The figure for `CC(C)(C)c1ccc(CC(=O)Nc2cnn(Cc3ccc(OC(F)F)cc3)n2)cc1` [Example 88, 2-(4-tert-Butyl-phenyl)-N-[2-(4-difluoromethoxy-benzyl)-2H-[1,2,3]triazol-4-yl]-acetamide] is 56 nM; for `COc1cc(Cn2ncc(NC(=O)Cc3ccc(C4(F)COC4)cc3)n2)cc(F)c1F` [Example 224, N-[2-(3,4-Difluoro-5-methoxy-benzyl)-2H-[1,2,3]triazol-4-yl]-2-[4-(3-fluoro-oxetan-3-yl)-phenyl]-acetamide] it is 190 nM; for `COc1cc(Cn2ncc(NC(=O)Cc3ccc(C4(C(F)(F)F)CC4)cc3)n2)cc(F)c1F` [Example 227, N-[2-(3,4-Difluoro-5-methoxy-benzyl)-2H-[1,2,3]triazol-4-yl]-2-[4-(1-trifluoromethyl-cyclopropyl)-phenyl]-acetamide] it is 770 nM.

As to `CCn1ncc2cc(CC(=O)Nc3cnn(Cc4ccc(C#N)c(F)c4)n3)ccc21` [Example 139, N-[2-(4-Cyano-3-fluoro-benzyl)-2H-[1,2,3]triazol-4-yl]-2-(1-ethyl-1H-indazol-5-yl)-acetamide], the half-maximal inhibitory concentration (IC50) was determined as 69 nM. In the case of `O=C(Cc1ccc(N2CCCC2)nc1)Nc1cnn(Cc2ccc(F)c(F)c2)n1` [Example 18, N-[2-(3,4-Difluoro-benzyl)-2H-[1,2,3]triazol-4-yl]-2-(6-pyrrolidin-1-yl-pyridin-3-yl)-acetamide], the IC50 was 15 nM. The figure for `COCCOc1ccc(Cn2ncc(NC(=O)Cc3ccc(C(C)(C)C)cc3)n2)cc1` [Example 86, 2-(4-tert-Butyl-phenyl)-N-{2-[4-(2-methoxy-ethoxy)-benzyl]-2H-[1,2,3]triazol-4-yl}-acetamide] is 130 nM.
